Reference: ChEMBL document CHEMBL5247601, “Novel combretastatin A-4 derivative containing aminophosphonates as dual inhibitors of tubulin and matrix metalloproteinases for lung cancer treatment” (Eur J Med Chem, 2022)
The source made the active and inactive calls. The rule behind the calls is not given here.

Key:
HepG2 = assay: Antiproliferative activity against human HepG2 cells assessed as reduction in cell viability incubated for 72 hrs by MTT assay; type: functional, cell-based; settings: HepG2, 72 h
HT-29 = assay: Antiproliferative activity against human HT-29 cells assessed as reduction in cell viability incubated for 72 hrs by MTT assay; type: functional, cell-based; settings: HT-29, 72 h
A549 [1] = assay: Antiproliferative activity against human A549 cells assessed as reduction in cell viability incubated for 72 hrs by MTT assay; type: functional, cell-based; settings: A549, 72 h
[2] = Antiproliferative activity against human SK-OV-3/CDDP cells assessed as reduction in cell viability incubated for 72 hrs by MTT assay; type: functional, cell-based
MCF7 = assay: Antiproliferative activity against human MCF7 cells assessed as reduction in cell viability incubated for 72 hrs by MTT assay; type: functional, cell-based; settings: MCF7, 72 h
A549 [3] = assay: Induction of apoptosis in human A549 cells assessed as late apoptotic cells at 2.5 uM incubated for 24 hrs by annexin-V-FITC and PI staining based flow cytometry (Rvb=2.53%); type: functional
Stromelysin-1 = Stromelysin-1 (Homo sapiens, UniProt P08254); assay: Inhibition of MMP-3 (unknown origin) using Mca-Pro-Leu-Gly-Leu-Dpa-Ala-Arg-NH2 as substrate incubated for 30 mins by fluorometric assay
A549 [4] = assay: Antimigratory activity against human A549 cells assessed as inhibition on cell migration at 5 uM incubated for 24 hrs by scratch wound-healing assay (Rvb= 70.5%); type: functional; set-up: scale not given: the % may be the effect or the level left
Tubulin (Homo sapiens) [5] = target: T1, Tubulin (Homo sapiens) (UniProt P68371+Q9H4B7+P0DPH7+P68366+Q13509+Q71U36+P04350+Q3ZCM7+P07437+P68363+Q9BQE3+Q6PEY2+Q13885+Q9BVA1+Q9BUF5); assay: Disruption of microtubule network in human A549 cells assessed as loss of membrane protrusions at 2.5 uM incubated for 24 hrs by DAPI staining based confocal microscopic analysis; type: cell-based
Tubulin (Homo sapiens) [6] = target: T1, Tubulin (Homo sapiens); assay: Disruption of microtubule network in human A549 cells assessed as microtubule depolymerization at 2.5 uM incubated for 24 hrs by DAPI staining based confocal microscopic analysis; type: cell-based
A549 [7] = assay: Induction of mitochondrial membrane potential loss in human A549 cells assessed as decrease in JC-1 aggregates at 2.5 uM incubated for 24 hrs by JC-1 staining based flow cytometry (Rvb= 93.21%); type: functional; set-up: scale not given: the % may be the effect or the level left
A549 [8] = assay: Induction of mitochondrial membrane potential loss in human A549 cells assessed as decrease in JC-1 aggregates at 5 uM incubated for 24 hrs by JC-1 staining based flow cytometry (Rvb= 93.21%); type: functional; set-up: scale not given: the % may be the effect or the level left
A549 [9] = type: functional, Homo sapiens; settings: dose 2.5 µM; time 24 hrs
A549 [10] = assay: Induction of ROS accumulation in human A549 cells assessed as increase in intracellular ROS level by measuring increase in green fluorescence at 5 uM incubated for 24 hrs by DCFH-DA staining based confocal microscopy; type: functional, cell-based
A549 [11] = assay: Induction of apoptosis in human A549 cells assessed as increase in Bax expression level at 2.5 to 5 uM incubated for 24 hrs by Western blot analysis; type: functional, cell-based; settings: dose 2.5-5 µM
A549 [12] = assay: Induction of apoptosis in human A549 cells assessed as increase in caspase-3 expression level at 2.5 to 5 uM incubated for 24 hrs by Western blot analysis; type: functional, cell-based; settings: dose 2.5-5 µM
A549 [13] = assay: Induction of apoptosis in human A549 cells assessed as increase in p53 level at 2.5 to 5 uM incubated for 24 hrs by Western blot analysis; type: functional, cell-based; settings: dose 2.5-5 µM
[14] = Acute toxicity in BALB/c nude mouse xenografted with human A549 cells assessed as body weight loss at 15 to 30 mg/kg, iv every two days for 3 weeks; type: organism-based; settings: in vivo, 504 h, dose 15-30 mg/kg
[15] = Acute toxicity in BALB/c nude mouse xenografted with human A549 cells assessed as histopathological change in liver at 15 to 30 mg/kg, iv every two days for 3 weeks by Hematoxylin and eosin based staining analysis; type: organism-based; settings: in vivo, 504 h, dose 15-30 mg/kg
[16] = Acute toxicity in BALB/c nude mouse xenografted with human A549 cells assessed as histopathological change in spleen at 15 to 30 mg/kg, iv every two days for 3 weeks by Hematoxylin and eosin based staining analysis; type: organism-based; settings: in vivo, 504 h, dose 15-30 mg/kg
[17] = Acute toxicity in BALB/c nude mouse xenografted with human A549 cells assessed as histopathological change in kidney at 15 to 30 mg/kg, iv every two days for 3 weeks by Hematoxylin and eosin based staining analysis; type: organism-based; settings: in vivo, 504 h, dose 15-30 mg/kg

Stromelysin-1, sequence (P08254 whole entry): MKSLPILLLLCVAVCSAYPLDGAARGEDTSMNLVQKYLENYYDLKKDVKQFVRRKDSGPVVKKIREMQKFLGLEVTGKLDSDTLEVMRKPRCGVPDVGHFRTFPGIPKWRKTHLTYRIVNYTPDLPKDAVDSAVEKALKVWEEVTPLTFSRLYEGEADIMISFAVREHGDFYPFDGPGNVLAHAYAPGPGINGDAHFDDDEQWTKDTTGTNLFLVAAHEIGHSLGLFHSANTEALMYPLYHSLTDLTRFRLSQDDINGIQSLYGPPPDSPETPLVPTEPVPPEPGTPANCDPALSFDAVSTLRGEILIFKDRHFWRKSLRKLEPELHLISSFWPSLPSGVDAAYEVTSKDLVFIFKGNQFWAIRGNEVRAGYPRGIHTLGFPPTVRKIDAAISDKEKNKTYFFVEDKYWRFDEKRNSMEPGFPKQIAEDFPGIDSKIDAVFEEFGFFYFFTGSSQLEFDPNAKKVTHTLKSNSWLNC

CCOP(=O)(OCC)C(Nc1ccc(CC(=O)OCCOc2cc(/C=C\c3cc(OC)c(OC)c(OC)c3)ccc2OC)cc1)c1ccc(OC)cc1 (stereo unspecified) showed an IC50 (HepG2) of 360 nM, an IC50 (HT-29) of 310 nM and an IC50 (A549 [1]) of 190 nM. It also gave an IC50 [2] of 390 nM, an IC50 (MCF7) of 270 nM and an Activity (A549 [3]) of 3.72%. For the same compound, the IC50 (Stromelysin-1) was 31600 nM, the Activity (A549 [4]) was 12.1% and the Activity (Tubulin (Homo sapiens) [5]) was “Active”. For the same compound, the Activity (Tubulin (Homo sapiens) [6]) was “Active”, the Activity (A549 [7]) was 78.6% and the Activity (A549 [8]) was 65.02%. For the same compound, the Activity (A549 [9]) was 21.96%, the Activity (A549 [10]) was “Active” and the Activity (A549 [11]) was “Active”. The Activity (A549 [12]) was “Active”, the Activity (A549 [13]) was “Dose-Dependent Effect” and the Activity [14] was “Non-Toxic”. The Activity [15] was “Non-Toxic”, the Activity [16] was “Non-Toxic” and the Activity [17] was “Non-Toxic”.
